Test results: ChEMBL document CHEMBL1150670, “Anti-HIV agents derived from the ent-kaurane diterpenoid linearol” (J Nat Prod, 2002)
≈ marks a conversion by molar mass, not a printed value. Calls of active or inactive are those of the source. No cut-off for these calls is given here.

Experiments:
[1] = system: Human immunodeficiency virus 1; test: Antiviral activity against HIV1 3B replication in human H9 cells assessed as inhibition of p24 antigen production after 4 days by ELISA; type: functional, organism-based; settings: for EC50: Human immunodeficiency virus 1, 3B, H9, 96 h
[2] = system: H9; test: Cytotoxicity against human H9 cells by Coulter counting analysis; type: cell-based
[3] = Therapeutic index, ratio of IC50 for human H9 cells to EC50 for HIV1 3B replication in human H9 cells; type: cell-based; settings: read-out: Ratio IC50/EC50

Row | EC50 [1] [µg/mL] | SMILES | Activity [1] | IC50 [2] [µg/mL] | selectivity ratio [3]
1 |  | C=C1C[C@@]23C[C@@H]1CC[C@H]2[C@]1(C)CC[C@@H](OC(=O)c2ccc(OC)cc2)[C@](C)(COC(C)=O)[C@@H]1C[C@@H]3O | inactive | 2 (≈ 4.03 µM) | 
2 | 0.13 (≈ 0.281 µM) | CC(=O)OC[C@]1(C)[C@@H]2C[C@H](OC(C)=O)[C@]34C[C@H](CC[C@H]3[C@]2(C)CC[C@H]1OC(C)=O)[C@@]1(CO1)C4 |  | 20.6 (≈ 44.5 µM) | 163
3 |  | C=C1C[C@@]23C[C@@H]1CC[C@H]2[C@]1(C)CC[C@@H](OC(=O)c2ccc4c(c2)OCO4)[C@](C)(COC(C)=O)[C@@H]1C[C@@H]3O | inactive | 5.3 (≈ 10.4 µM) | 
4 | < 0.1 | C=C1C[C@@]23C[C@@H]1CC[C@H]2[C@]1(C)CC[C@@H](OC(=O)c2ccc(OC)cc2)[C@](C)(COC(C)=O)[C@@H]1C[C@@H]3OC(=O)c1ccc(OC)cc1 |  | 1.9 (≈ 3.01 µM) | > 19.2
5 | 3.11 (≈ 5.65 µM) | C=C1C[C@@]23C[C@@H]1CC[C@H]2[C@]1(C)CC[C@@H](OC(=O)c2ccco2)[C@](C)(COC(C)=O)[C@@H]1C[C@@H]3OC(=O)c1ccco1 |  | 10.8 (≈ 19.6 µM) | 3.49
6 |  | C=C1C[C@@]23C[C@@H]1CC[C@H]2[C@]1(C)CC[C@@H](OC(=O)c2ccc([N+](=O)[O-])cc2)[C@](C)(COC(C)=O)[C@@H]1C[C@@H]3OC(=O)c1ccc([N+](=O)[O-])cc1 | inactive | > 100 | 
7 |  | C=C1C[C@@]23C[C@@H]1CC[C@H]2[C@]1(C)CC[C@@H](OC(=O)c2ccc(C#N)cc2)[C@](C)(COC(C)=O)[C@@H]1C[C@@H]3OC(=O)c1ccc(C#N)cc1 | inactive | > 100 | 
8 |  | C=C1C[C@@]23C[C@@H]1CC[C@H]2[C@]1(C)CC[C@@H](OC(=O)CC)[C@](C)(COC(C)=O)[C@@H]1C[C@@H]3O | inactive | 22.2 (≈ 53 µM) | 
9 |  | C=C1C[C@@]23C[C@@H]1CC[C@H]2[C@]1(C)CC[C@@H](OC(=O)c2cnccn2)[C@](C)(COC(C)=O)[C@@H]1C[C@@H]3OC(=O)c1cnccn1 | inactive | 5.6 (≈ 9.74 µM) | 
10 | 2.63 (≈ 5.54 µM) | C=C1C[C@@]23C[C@@H]1CC[C@H]2[C@]1(C)CC[C@@H](OC(=O)CC)[C@](C)(COC(C)=O)[C@@H]1C[C@@H]3OC(=O)CC |  | 16 (≈ 33.7 µM) | 6.1
11 |  | C=C1C[C@@]23C[C@@H]1CC[C@H]2[C@]1(C)CC[C@@H](OC(=O)c2ccc(F)cc2)[C@](C)(COC(C)=O)[C@@H]1C[C@@H]3O | inactive | 57.7 (≈ 119 µM) | 
12 |  | C=C1C[C@@]23C[C@@H]1CC[C@H]2[C@]1(C)CC[C@@H](OC(=O)c2ccccc2)[C@](C)(COC(C)=O)[C@@H]1C[C@@H]3OC(=O)c1ccccc1 | inactive | 2.2 (≈ 3.85 µM) | 
13 |  | C=C1C[C@@]23C[C@@H]1CC[C@H]2[C@]1(C)CC[C@@H](OC(=O)c2ccc(Cl)cc2)[C@](C)(COC(C)=O)[C@@H]1C[C@@H]3O | inactive | 54 (≈ 108 µM) | 
14 |  | CC(=O)OC[C@]1(C)[C@@H]2C[C@H](O)[C@@]34CC(=O)[C@@H](CC[C@H]3[C@]2(C)CC[C@H]1O)C4 | inactive | > 100 | 
15 |  | C=C1C[C@@]23C[C@@H]1CC[C@H]2[C@]1(C)CC[C@@H](O)[C@](C)(COC(C)=O)[C@@H]1C[C@@H]3O [LINEAROL] | inactive | 56.5 (≈ 156 µM) | 
16 |  | C=C1C[C@@]23C[C@@H]1CC[C@H]2[C@]1(C)CC[C@@H](OC(=O)c2ccccc2)[C@](C)(COC(C)=O)[C@@H]1C[C@@H]3O | inactive | 1.8 (≈ 3.86 µM) | 
17 | 0.27 (≈ 0.41 µM) | C=C1C[C@@]23C[C@@H]1CC[C@H]2[C@]1(C)CC[C@@H](OC(=O)c2ccc4c(c2)OCO4)[C@](C)(COC(C)=O)[C@@H]1C[C@@H]3OC(=O)c1ccc2c(c1)OCO2 |  | 50.6 (≈ 76.8 µM) | 184
18 |  | C=C1C[C@@]23C[C@@H]1CC[C@H]2[C@]1(C)CC[C@@H](OC(=O)c2ccc(SC)cc2)[C@](C)(COC(C)=O)[C@@H]1C[C@@H]3O | inactive | 5.3 (≈ 10.3 µM) | 
19 |  | C=C1C[C@@]23C[C@@H]1CC[C@H]2[C@]1(C)CC[C@@H](OC(=O)c2ccc(Cl)cc2)[C@](C)(COC(C)=O)[C@@H]1C[C@@H]3OC(=O)c1ccc(Cl)cc1 | inactive | 60.1 (≈ 94 µM) | 
20 |  | C=C1C[C@@]23C[C@@H]1CC[C@H]2[C@]1(C)CC[C@@H](OC(=O)c2ccc(SC)cc2)[C@](C)(COC(C)=O)[C@@H]1C[C@@H]3OC(=O)c1ccc(SC)cc1 | inactive | 59.8 (≈ 90.2 µM) | 
21 |  | C=C1C[C@@]23C[C@@H]1CC[C@H]2[C@]1(C)CC[C@@H](OC(=O)c2ccc(F)cc2)[C@](C)(COC(C)=O)[C@@H]1C[C@@H]3OC(=O)c1ccc(F)cc1 | inactive | 41.1 (≈ 67.7 µM) | 
22 |  | C=C1C[C@@]23C[C@@H]1CC[C@H]2[C@]1(C)CC[C@@H](OC(=O)c2cccc([N+](=O)[O-])c2)[C@](C)(COC(C)=O)[C@@H]1C[C@@H]3OC(=O)c1cccc([N+](=O)[O-])c1 | inactive | 21.4 (≈ 32.4 µM) | 
23 |  | C=C1C[C@@]23C[C@@H]1CC[C@H]2[C@]1(C)CC[C@@H](OC(=O)c2ccccc2OC)[C@](C)(COC(C)=O)[C@@H]1C[C@@H]3O | inactive | 5.4 (≈ 10.9 µM) | 
24 | 1.05 (≈ 1.75 µM) | C=C1C[C@@]23C[C@@H]1CC[C@H]2[C@]1(C)CC[C@@H](OC(=O)c2ccc(C)cc2)[C@](C)(COC(C)=O)[C@@H]1C[C@@H]3OC(=O)c1ccc(C)cc1 |  | 52.5 (≈ 87.7 µM) | 50.1
25 |  | CC(=O)OC[C@]1(C)[C@@H]2C[C@H](O)[C@]34C[C@H](CC[C@H]3[C@]2(C)CC[C@H]1O)[C@@]1(CO1)C4 |  | > 100 | 
26 |  | C=C1C[C@@]23C[C@@H]1CC[C@H]2[C@]1(C)CC[C@@H](OC(=O)c2ccccc2OC)[C@](C)(COC(C)=O)[C@@H]1C[C@@H]3OC(=O)c1ccccc1OC | inactive | 6 (≈ 9.51 µM) | 
27 |  | CC(=O)O[C@@H]1CC[C@]2(C)[C@@H](C[C@H](O)[C@]34C[C@H](CC[C@@H]23)[C@@]2(CO2)C4)[C@@]1(C)CO | inactive | > 100 | 
